The results in this text go back to US11517591B2, “Immunogenic peptides specific to BCMA and TACI antigens” (Dana-Farber Cancer Institute, Inc., priority 2017, dated 2022).

Assay [1] addresses T1, HLA-A2 molecule (Homo sapiens, UniProt P04439, D140Y/D185E/D98H/E176V/E277Q/G131W/G231S/I119V/I121R/I166T/I218V/L300P/L318F/N151K/N90K/P208A/P217A/Q86G/Q94H/R138H/R169H/T345S).
T1 construct: endogenous in cells; host or cells: T2 cell line (human B and T cell hybrid), provided by Dr. J. Molldrem
In words: Peptide/HLA-A2 complex stability on peptide-loaded T2 cells post-brefeldin A. It counts as binding. The method, then:
The native and heteroclitic BCMA and TACI peptides were examined for HLA-A2 binding stability using the T2 cell line. T2 cells were pulsed with the respective peptide. After overnight incubation, the cells were washed to remove unbound peptide; they were evaluated for binding affinity as shown above and stability as following. The cells were incubated with 10 μg/ml Brefeldin A (Sigma) at 37° C. and 5% CO2 for 1 hour to block cell surface expression of newly synthesized HLA-A2 molecules. Peptide/HLA-A2 binding stability was evaluated at 0, 2, 4, 6 and 18 hours post-Brefeldin A treatment. Following the incubation period, the cells were harvested, washed, stained with mouse anti-human HLA-A2-FITC mAb and analyzed by flow cytometry. […] Therefore, the Heteroclitic #4 BCMA72-80 (YLMFLLRKI (SEQ ID NO: 13)) and Heteroclitic #3. TACI154-162 (YLSADQVAL (SEQ ID NO: 16) peptides were selected for further evaluation of their immunogenic potential to generate MM-specific cytotoxic T cells (CTLs).
T2 cells were pulsed overnight with various doses of peptide plus β2-microglobulin (3 μg/ml) (Sigma, St Louis, Mo.). Following overnight incubation, the cells were stained with HLA-A2-PE mAb and analyzed using a FACSCanto™ flow cytometer (BD). Peptide/HLA-A2 complex stability was measured on peptide loaded T2 cells at 0, 2, 4, 6 and 14 hours post-brefeldin A treatment by staining with HLA-A2-PE mAb and flow cytometric analysis.
T2 cells were pulsed overnight with various concentrations of peptide plus β2-microglobulin (3 μg/ml) (Sigma, St Louis, Mo.). Following overnight incubation, the cells were stained with HLA-A2-PE mAb and analyzed using a FACSCanto™ flow cytometer (BD). The stability of peptide/HLA-A2 complex binding was measured on peptide loaded T2 cells at 0, 2, 4, 6 and 14 hours post-brefeldin A treatment followed by staining with HLA-A2-PE mAb and flow cytometric analysis.

For assay [2], the system named is peripheral blood mononuclear cells from HLA-A2+ normal donors. Briefly: Generation and phenotypic characterization of BCMA-CTL stimulated with free or nanoparticle-encapsulated BCMA peptide. The format is cell-based, human. The protocol:
BCMA peptide-specific CTL (BCMA-CTL) were generated ex vivo by repeated stimulation of peripheral blood mononuclear cells isolated from HLA-A2^+ normal donors' with (1) HLA-A2 specific BCMA immunogenic peptide (50 ug/ml), (2) a blank nanoparticle (PLGA or liposome) without peptide, or (3) the BCMA peptide (50 ug/ml) encapsulated nanoparticle (PLGA/peptide or liposome/peptide). PBMC were cultured in DMEM medium supplemented with 10% human AB serum (BioWhittaker) and pulsed weekly with the appropriate BCMA peptide for a total of 4 or 5 cycles. IL-2 (50 U/ml) was added to the T cell cultures two days after the second stimulation.
BCMA peptide-specific CD8^+ CTL were evaluated for Naïve: Memory cell development and expression of CD28 co-stimulatory molecule by flow cytometry. In addition, BCMA peptide-specific CD8^+ CTL were assessed within the cultures by staining with BCMA peptide-specific Tetramer-PE. Following tetramer staining at 37° C. for 30 min, cells were washed and stained with CD8-FITC and CD28-APC mAbs. After staining, cells were washed, fixed in 2% paraformaldehyde, acquired using a LSRII Fortessa™ flow cytometer, and analyzed using FACS DIVA™ v8.0 (BD) or FlowJo v10.0.7 (Tree star, Ashland, Oreg.) software. BCMA-CTL were analyzed for the presence\frequency of specific memory (central memory, effector memory)/non-memory populations within the total gated CD3^+CD8^+ T cell population.

Setting [3] is: after the 5-cycle of peptide stimulation.

“YLMFLLRKI [heteroclitic BCMA72-80, heteroclitic BCMA peptide]”: the “HLA-A2 binding stability, heteroclitic vs native peptide” value in assay [1] (50 ug/ml, 0, 2, 4, 6 and 18 hours post-Brefeldin A, Example 4, FIGS. 6 and 7) was “significant improvement in their HLA-A2 affinity at all the time points evaluated”. In addition, the “HLA-A2 affinity and stability at each time point, compared with HIV-Gag77-85 positive control” value in assay [1] (Example 12) was “highest level of HLA-A2 affinity and stability”. The “HLA-A2 stability of heteroclitic vs native BCMA peptide” value in assay [1] (Example 12) is reported as “further enhanced”. Besides, the “total CD45RO+ memory CTL” value came to 15.3% in assay [2] (3′ stimulation), 19.5% in assay [2] (4′ stimulation) and 79.0% in assay [2] (5′ stimulation). For the same sequence, the “central memory (CM) CD8+ T cell subset” value came out at 2.9% in assay [2] (after 1 cycle of stimulation), 12.4% in assay [2] (after 3 cycles of stimulation) and 3.5% in assay [2] (setting [3]). For the same sequence, the “effector memory (EM) CD8+ T cell subset” value in assay [2] (after 1 cycle of stimulation) is recorded as 5.7%; in assay [2] (after 3 cycles of stimulation), 11.0%; in assay [2] (setting [3]), 95.4%.
